Measured values reported in paper PMC2746553 (Biochemistry, 2009).

Key:
[1] = biological target: T1, 15-hLO-2 (human epithelial 15-lipoxygenase-2) (Homo sapiens, UniProt O15296); experiment: competitive substrate capture, solvent isotope effect and steady-state kinetics; assay type: biochemical
T1 sequence (O15296 1-676): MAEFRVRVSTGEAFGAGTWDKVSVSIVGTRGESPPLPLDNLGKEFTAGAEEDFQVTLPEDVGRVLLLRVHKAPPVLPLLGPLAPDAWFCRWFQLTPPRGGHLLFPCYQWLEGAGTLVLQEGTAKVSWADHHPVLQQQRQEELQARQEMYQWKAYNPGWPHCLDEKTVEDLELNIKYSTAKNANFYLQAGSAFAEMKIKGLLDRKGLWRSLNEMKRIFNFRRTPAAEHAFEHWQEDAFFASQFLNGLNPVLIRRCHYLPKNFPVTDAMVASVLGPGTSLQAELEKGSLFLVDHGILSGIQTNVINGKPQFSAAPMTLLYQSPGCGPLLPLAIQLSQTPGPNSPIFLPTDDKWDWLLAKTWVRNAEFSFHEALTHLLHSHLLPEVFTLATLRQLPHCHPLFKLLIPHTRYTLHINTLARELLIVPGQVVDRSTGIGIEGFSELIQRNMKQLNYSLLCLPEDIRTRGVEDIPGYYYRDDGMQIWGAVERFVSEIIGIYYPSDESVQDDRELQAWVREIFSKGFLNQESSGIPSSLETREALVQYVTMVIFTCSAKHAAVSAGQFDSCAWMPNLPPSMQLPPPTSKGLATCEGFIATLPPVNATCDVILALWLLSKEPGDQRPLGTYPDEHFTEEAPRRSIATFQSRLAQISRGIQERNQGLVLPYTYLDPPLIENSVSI

[2] = biological target: T1, 15-hLO-2 (human epithelial 15-lipoxygenase-2); experiment: steady-state inhibition kinetics with AA as substrate; assay type: biochemical
[3] = biological target: T1, 15-hLO-2 (human epithelial 15-lipoxygenase-2); experiment: competitive kinetic isotope effect and competitive substrate capture; assay type: biochemical
[4] = biological target: T1, 15-hLO-2 (human epithelial 15-lipoxygenase-2)

CCCCC[C@H](O)/C=C/C=C\CCCCCCCC(=O)O [13-HODE, 13-(S)-hydroxyoctadecadienoic acid]
Kd [1]: ~5 nM

CCCCC/C=C\C/C=C\CCCCCCCC(=O)O [d31-LA]
Ki [2]: 17 ± 3 µM

CCCCC/C=C\C/C=C\CCCCCCCC(=O)O [LA, linoleic acid]
competitive kinetic isotope effect and competitive substrate capture (HPLC) [3]: 45 ± 3

CCCCC/C=C\C/C=C\C/C=C\C/C=C\CCCC(=O)O [AA, arachidonic acid]
steady-state kinetics (234 nm), kcat/KM at pH 7.5 [4]: 0.15 ± 0.02 μM^-1 s^-1
